Results reported in ChEMBL document CHEMBL4673362, “Design, synthesis, and biological evaluation of 2,6,7-substituted pyrrolo[2,3-d]pyrimidines as cyclin dependent kinase inhibitor in pancreatic cancer cells” (Bioorg Med Chem Lett, 2021).
In brackets after ≈: the same amount, converted by molar mass. One block for each compound: values may come before it. Activity calls are given as the source filed them. The rule behind the calls is not given here.

Experiments:
[1] = biological target: Cyclin-dependent kinase 4/cyclin D1 (Homo sapiens, UniProt P11802); test: Inhibition of CDK4/cyclin D1 (unknown origin); format: protein-complex assay
MIA PaCa-2 [2] = test: Antiproliferative activity against human MIA PaCa-2 cells assessed as inhibition of cell growth by MTT assay; format: functional, cell-based
[3] = biological target: Cyclin-dependent kinase 9 (Homo sapiens) (UniProt P50750); test: Inhibition of CDK9 (unknown origin) at 1 uM
[4] = biological target: Cyclin-dependent kinase 7 (Homo sapiens) (UniProt P50613); test: Inhibition of CDK7 (unknown origin) at 1 uM
[5] = biological target: Cyclin-dependent kinase 8 (Homo sapiens) (UniProt P49336); test: Inhibition of CDK8 (unknown origin) at 1 uM
[6] = biological target: Cyclin-dependent kinase 5 (Homo sapiens) (UniProt Q00535); test: Inhibition of CDK5 (unknown origin) at 1 uM
[7] = biological target: Cyclin-dependent kinase 6 (Homo sapiens) (UniProt Q00534); test: Inhibition of CDK6 (unknown origin) at 1 uM
[8] = biological target: Cyclin-dependent kinase 3 (Homo sapiens) (UniProt Q00526); test: Inhibition of CDK3 (unknown origin) at 1 uM
[9] = biological target: Cyclin-dependent kinase 4 (Homo sapiens) (UniProt P11802); test: Inhibition of CDK4 (unknown origin) at 1 uM
[10] = biological target: Cyclin-dependent kinase 2 (Homo sapiens) (UniProt P24941); test: Inhibition of CDK2 (unknown origin) at 1 uM
[11] = biological target: Cyclin-dependent kinase 1 (Homo sapiens) (UniProt P06493); test: Inhibition of CDK1 (unknown origin) at 1 uM
[12] = biological target: CDK6/cyclin D1 (Homo sapiens) (UniProt P24385+Q00534); test: Inhibition of human CDK6/cyclin D1 at 1 uM relative to control; format: protein-complex assay
[13] = biological target: Cyclin-dependent kinase 4/cyclin D1 (Homo sapiens) (UniProt P11802+P24385); test: Inhibition of human CDK4/cyclin D1 at 1 uM relative to control; format: protein-complex assay
[14] = biological target: CDK4/Cyclin D3 (Homo sapiens) (UniProt P11802+P30281); test: Inhibition of human CDK4/cyclin D3 at 1 uM relative to control; format: protein-complex assay
[15] = biological target: Mitogen-activated protein kinase kinase kinase 9 (Homo sapiens) (UniProt P80192); test: Inhibition of human MLK1 at 1 uM relative to control
[16] = biological target: Tyrosine-protein kinase Fer (Homo sapiens) (UniProt P16591); test: Inhibition of human FER at 1 uM relative to control
[17] = biological target: Calcium/calmodulin-dependent protein kinase type 1 (Homo sapiens) (UniProt Q14012); test: Inhibition of human CAMK1 at 1 uM relative to control
[18] = biological target: Calcium/calmodulin-dependent protein kinase kinase 1 (Homo sapiens) (UniProt Q8N5S9); test: Inhibition of human CAMKKA at 1 uM relative to control
[19] = biological target: Dual specificity protein kinase TTK (Homo sapiens) (UniProt P33981); test: Inhibition of human TTK at 1 uM relative to control
MIA PaCa-2 [20] = test: Cell cycle arrest in human MIA PaCa-2 cells assessed as accumulation at G1 phase at 2.5 uM (reference value: 44.09 %); format: functional
MIA PaCa-2 [21] = test: Cell cycle arrest in human MIA PaCa-2 cells assessed as accumulation at G1 phase at 1.6 uM (reference value: 44.09 %); format: functional
MIA PaCa-2 [22] = test: Cell cycle arrest in human MIA PaCa-2 cells assessed as accumulation at G1 phase at 0.8 uM (reference value: 44.09 %); format: functional
MIA PaCa-2 [23] = test: Cell cycle arrest in human MIA PaCa-2 cells assessed as accumulation at G2 phase at 2.5 uM (reference value: 10.64 %); format: functional
MIA PaCa-2 [24] = test: Cell cycle arrest in human MIA PaCa-2 cells assessed as accumulation at G2 phase at 1.6 uM (reference value: 10.64 %); format: functional
MIA PaCa-2 [25] = test: Cell cycle arrest in human MIA PaCa-2 cells assessed as accumulation at G2 phase at 0.8 uM (reference value: 10.64 %); format: functional
MIA PaCa-2 [26] = test: Cell cycle arrest in human MIA PaCa-2 cells assessed as accumulation at S phase at 2.5 uM (reference value: 45.27 %); format: functional
MIA PaCa-2 [27] = test: Cell cycle arrest in human MIA PaCa-2 cells assessed as accumulation at S phase at 1.6 uM (reference value: 45.27 %); format: functional
MIA PaCa-2 [28] = test: Cell cycle arrest in human MIA PaCa-2 cells assessed as accumulation at S phase at 0.8 uM (reference value: 45.27 %); format: functional
[29] = biological target: Cyclin-dependent kinase 9 (Homo sapiens) (UniProt P50750); test: Inhibition of CDK9 (unknown origin) at 1 uM relative to control
[30] = Solubility of the compound at pH 7.4; format: physicochemical; conditions: buffer
[31] = Permeability of the compound at pH 7.4 by PAMPA; format: ADME; conditions: read-out: permeability
[32] = Permeability of the compound at pH 5.0 by PAMPA; format: ADME; conditions: read-out: permeability
[33] = Metabolic stability in rat liver microsomes assessed as half life; format: ADME, Microsome
[34] = Metabolic stability in human liver microsomes assessed as half life; format: ADME, Microsome
BXPC-3 = test: Antiproliferative activity against human BxPC-3 cells assessed as inhibition of cell growth by MTT assay; format: functional, cell-based
CDK6/cyclin D1 = CDK6/cyclin D1 (Homo sapiens, UniProt Q00534); test: Inhibition of CDK6/cyclin D1 (unknown origin); format: protein-complex assay
CDK6/cyclin D1, sequence (P24385 whole entry): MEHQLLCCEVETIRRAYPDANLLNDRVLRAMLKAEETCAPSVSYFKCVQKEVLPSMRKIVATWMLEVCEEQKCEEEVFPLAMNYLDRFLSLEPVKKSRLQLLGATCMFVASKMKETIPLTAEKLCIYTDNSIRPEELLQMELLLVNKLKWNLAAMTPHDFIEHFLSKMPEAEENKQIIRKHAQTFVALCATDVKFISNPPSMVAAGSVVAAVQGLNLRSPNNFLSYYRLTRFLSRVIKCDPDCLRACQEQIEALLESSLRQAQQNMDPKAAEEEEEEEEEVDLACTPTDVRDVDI
CDK6/cyclin D1, sequence (Q00534 whole entry): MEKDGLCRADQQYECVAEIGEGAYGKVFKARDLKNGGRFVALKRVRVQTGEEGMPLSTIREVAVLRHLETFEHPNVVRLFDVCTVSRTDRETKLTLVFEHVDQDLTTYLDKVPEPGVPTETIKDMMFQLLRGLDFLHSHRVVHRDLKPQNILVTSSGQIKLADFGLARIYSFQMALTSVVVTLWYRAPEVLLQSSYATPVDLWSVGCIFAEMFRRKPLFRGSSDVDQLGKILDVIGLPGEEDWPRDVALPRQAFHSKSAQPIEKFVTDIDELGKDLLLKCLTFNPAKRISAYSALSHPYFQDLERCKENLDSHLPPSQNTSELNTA

Cyclin-dependent kinase 4/cyclin D1, sequence (P11802 whole entry): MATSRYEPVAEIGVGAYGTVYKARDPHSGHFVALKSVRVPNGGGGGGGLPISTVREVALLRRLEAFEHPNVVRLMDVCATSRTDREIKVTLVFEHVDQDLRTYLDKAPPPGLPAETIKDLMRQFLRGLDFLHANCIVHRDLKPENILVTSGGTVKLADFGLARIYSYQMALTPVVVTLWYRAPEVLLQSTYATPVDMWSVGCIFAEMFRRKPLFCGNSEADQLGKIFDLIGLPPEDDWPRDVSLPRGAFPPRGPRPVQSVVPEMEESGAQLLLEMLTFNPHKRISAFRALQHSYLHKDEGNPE
Cyclin-dependent kinase 4/cyclin D1, sequence (P24385 whole entry, further chain): as the sequence (P24385 whole entry) above
Cyclin-dependent kinase 4 (Homo sapiens), sequence (P11802 whole entry): as the sequence (P11802 whole entry) above
Cyclin-dependent kinase 6 (Homo sapiens), sequence (Q00534 whole entry): as the sequence (Q00534 whole entry) above
Cyclin-dependent kinase 9 (Homo sapiens), sequence (P50750 whole entry): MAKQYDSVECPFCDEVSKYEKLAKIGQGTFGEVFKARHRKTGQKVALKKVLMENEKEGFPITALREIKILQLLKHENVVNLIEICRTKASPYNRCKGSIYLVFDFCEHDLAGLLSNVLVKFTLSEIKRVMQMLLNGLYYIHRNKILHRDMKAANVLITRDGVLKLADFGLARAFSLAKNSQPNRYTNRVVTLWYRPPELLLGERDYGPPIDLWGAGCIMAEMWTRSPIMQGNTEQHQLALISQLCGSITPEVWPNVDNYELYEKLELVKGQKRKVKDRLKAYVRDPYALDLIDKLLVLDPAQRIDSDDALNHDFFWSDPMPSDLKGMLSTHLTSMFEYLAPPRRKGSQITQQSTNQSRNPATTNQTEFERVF
Cyclin-dependent kinase 5 (Homo sapiens), sequence (Q00535 whole entry, looked up): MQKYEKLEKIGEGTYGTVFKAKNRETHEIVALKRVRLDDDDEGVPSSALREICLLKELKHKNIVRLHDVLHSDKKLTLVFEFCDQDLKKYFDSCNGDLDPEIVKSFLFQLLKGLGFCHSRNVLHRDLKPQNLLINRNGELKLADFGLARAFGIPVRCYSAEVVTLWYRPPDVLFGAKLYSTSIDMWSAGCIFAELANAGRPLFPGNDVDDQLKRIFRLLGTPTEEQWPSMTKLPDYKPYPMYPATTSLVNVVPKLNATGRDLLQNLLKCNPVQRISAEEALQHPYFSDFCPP
Dual specificity protein kinase TTK (Homo sapiens), sequence (P33981 whole entry): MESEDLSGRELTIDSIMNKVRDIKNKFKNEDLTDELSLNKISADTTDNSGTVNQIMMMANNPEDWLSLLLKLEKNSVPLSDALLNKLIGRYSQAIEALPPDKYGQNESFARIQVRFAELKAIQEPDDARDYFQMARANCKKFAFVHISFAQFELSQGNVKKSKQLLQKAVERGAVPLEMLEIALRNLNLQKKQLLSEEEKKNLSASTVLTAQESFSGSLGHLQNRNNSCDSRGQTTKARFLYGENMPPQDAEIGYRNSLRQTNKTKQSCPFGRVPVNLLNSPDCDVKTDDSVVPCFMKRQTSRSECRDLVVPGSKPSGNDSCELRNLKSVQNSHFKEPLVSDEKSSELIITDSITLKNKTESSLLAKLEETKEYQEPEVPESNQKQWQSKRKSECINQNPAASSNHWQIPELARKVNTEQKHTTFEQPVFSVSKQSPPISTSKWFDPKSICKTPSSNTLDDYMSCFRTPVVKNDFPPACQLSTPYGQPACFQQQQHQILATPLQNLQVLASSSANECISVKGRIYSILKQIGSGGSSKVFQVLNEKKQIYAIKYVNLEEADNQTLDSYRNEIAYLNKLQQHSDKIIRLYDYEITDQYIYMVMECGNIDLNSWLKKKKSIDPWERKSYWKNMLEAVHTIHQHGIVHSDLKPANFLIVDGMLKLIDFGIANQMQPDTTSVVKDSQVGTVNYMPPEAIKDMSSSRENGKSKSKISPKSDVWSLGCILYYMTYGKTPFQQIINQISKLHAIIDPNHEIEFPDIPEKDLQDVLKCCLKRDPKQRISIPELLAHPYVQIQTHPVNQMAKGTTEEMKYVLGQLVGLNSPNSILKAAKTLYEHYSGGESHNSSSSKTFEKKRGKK
Calcium/calmodulin-dependent protein kinase kinase 1 (Homo sapiens), sequence (Q8N5S9 whole entry, looked up): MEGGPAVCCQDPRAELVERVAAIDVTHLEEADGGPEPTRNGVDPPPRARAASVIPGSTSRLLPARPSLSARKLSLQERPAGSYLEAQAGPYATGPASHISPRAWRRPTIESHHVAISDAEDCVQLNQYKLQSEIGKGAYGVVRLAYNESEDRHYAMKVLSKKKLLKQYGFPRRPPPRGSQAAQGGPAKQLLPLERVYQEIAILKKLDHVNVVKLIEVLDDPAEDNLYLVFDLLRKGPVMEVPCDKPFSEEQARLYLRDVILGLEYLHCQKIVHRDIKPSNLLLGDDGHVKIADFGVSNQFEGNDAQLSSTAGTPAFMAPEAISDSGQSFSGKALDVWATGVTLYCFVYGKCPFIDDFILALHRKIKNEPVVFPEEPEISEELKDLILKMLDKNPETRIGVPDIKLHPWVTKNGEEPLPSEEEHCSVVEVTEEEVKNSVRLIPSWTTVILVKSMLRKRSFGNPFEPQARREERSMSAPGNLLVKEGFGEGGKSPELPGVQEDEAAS
Mitogen-activated protein kinase kinase kinase 9 (Homo sapiens), sequence (P80192 whole entry, looked up): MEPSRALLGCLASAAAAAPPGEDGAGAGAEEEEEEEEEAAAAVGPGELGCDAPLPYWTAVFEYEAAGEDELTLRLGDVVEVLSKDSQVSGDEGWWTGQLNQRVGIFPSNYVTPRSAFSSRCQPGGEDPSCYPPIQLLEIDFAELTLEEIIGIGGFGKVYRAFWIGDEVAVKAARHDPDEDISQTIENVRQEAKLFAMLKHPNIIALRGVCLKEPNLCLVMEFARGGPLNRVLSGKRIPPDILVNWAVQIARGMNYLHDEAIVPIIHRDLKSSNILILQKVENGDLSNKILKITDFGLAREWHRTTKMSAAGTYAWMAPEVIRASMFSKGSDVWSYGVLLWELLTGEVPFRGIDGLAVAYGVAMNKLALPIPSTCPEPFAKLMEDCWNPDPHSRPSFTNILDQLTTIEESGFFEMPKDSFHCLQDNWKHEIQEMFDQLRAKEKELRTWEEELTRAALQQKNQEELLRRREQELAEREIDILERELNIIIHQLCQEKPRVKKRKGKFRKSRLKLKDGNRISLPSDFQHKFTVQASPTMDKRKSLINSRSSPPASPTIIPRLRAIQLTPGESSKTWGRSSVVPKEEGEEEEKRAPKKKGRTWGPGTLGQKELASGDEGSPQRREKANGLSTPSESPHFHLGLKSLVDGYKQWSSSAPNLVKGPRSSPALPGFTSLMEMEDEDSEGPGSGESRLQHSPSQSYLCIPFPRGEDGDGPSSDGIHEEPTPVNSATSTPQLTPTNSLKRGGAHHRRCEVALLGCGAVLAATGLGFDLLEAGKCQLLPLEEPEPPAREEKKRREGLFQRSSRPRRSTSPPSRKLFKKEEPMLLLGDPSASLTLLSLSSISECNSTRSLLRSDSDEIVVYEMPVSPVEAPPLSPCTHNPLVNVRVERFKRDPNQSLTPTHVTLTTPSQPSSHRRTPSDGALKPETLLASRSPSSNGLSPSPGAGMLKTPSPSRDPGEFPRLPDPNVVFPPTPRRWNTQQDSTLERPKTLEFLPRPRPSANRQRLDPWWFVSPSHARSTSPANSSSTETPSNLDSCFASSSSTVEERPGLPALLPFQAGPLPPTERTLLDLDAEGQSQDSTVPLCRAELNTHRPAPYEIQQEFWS
Cyclin-dependent kinase 1 (Homo sapiens), sequence (P06493 whole entry, looked up): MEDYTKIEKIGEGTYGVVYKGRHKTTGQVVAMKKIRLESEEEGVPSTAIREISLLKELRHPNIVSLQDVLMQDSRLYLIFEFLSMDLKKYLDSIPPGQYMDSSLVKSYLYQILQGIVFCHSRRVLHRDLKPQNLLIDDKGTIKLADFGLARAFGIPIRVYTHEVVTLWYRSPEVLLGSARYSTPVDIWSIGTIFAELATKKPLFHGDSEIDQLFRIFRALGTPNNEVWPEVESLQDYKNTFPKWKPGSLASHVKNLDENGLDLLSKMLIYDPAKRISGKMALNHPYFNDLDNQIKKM
Cyclin-dependent kinase 3 (Homo sapiens), sequence (Q00526 whole entry, looked up): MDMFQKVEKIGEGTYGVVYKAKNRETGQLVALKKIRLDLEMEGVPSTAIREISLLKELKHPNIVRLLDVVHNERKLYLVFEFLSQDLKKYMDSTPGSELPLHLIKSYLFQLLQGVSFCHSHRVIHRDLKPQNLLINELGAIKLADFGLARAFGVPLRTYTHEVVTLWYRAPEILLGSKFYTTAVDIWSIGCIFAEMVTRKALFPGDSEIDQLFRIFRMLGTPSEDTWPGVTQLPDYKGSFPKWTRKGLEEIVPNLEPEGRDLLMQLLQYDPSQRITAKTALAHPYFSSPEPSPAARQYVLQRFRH

SMILES: CCC(CO)Nc1ncc2cc(C(=O)N(C)C)n(C3CCCC3)c2n1 (configuration not stated)
IC50 [1]: 0.523 µM
IC50 (MIA PaCa-2 [2]): 30.9 µM

SMILES: CN(C)C(=O)c1cc2cnc(Nc3cccnc3)nc2n1C1CCCC1
IC50 [1]: 0.315 µM
IC50 (MIA PaCa-2 [2]): 26 µM

SMILES: CN(C)C(=O)c1cc2cnc(Nc3ccc(Cl)cc3)nc2n1C1CCCC1
IC50 [1]: 0.143 µM
IC50 (MIA PaCa-2 [2]): 13 µM

SMILES: CN(C)C(=O)c1cc2cnc(Nc3ccccc3)nc2n1C1CCCC1
IC50 [1]: 0.0929 µM
IC50 (MIA PaCa-2 [2]): 54.9 µM

SMILES: O=C(Nc1ccccc1)c1cc2cnc(N3CCN(c4ccc(Cl)cc4)CC3)nc2n1C1CCCC1
IC50 [1]: > 100 µM
IC50 (MIA PaCa-2 [2]): > 200 µM

Stronger by IC50 (MIA PaCa-2 [2]), values ahead:

IC50 (BXPC-3): 68.4 µM
IC50 (MIA PaCa-2 [2]): 10.7 µM
solubility [30]: > 64 µg/mL
Papp [31]: 123 ×10⁻⁶ cm/s
Papp [32]: < 1 ×10⁻⁶ cm/s
half-life [33]: > 30 min
half-life [34]: 146 min
SMILES: CN(C)C(=O)c1cc2cnc(Nc3ccc(N4CCNCC4)cn3)nc2n1C1CCCC1 [RIBOCICLIB]
Activity (MIA PaCa-2 [20]): 77.2%
Activity (MIA PaCa-2 [21]): 72.41%
Activity (MIA PaCa-2 [22]): 66.97%
Activity (MIA PaCa-2 [23]): 4.09%
Activity (MIA PaCa-2 [24]): 5.47%
Activity (MIA PaCa-2 [25]): 5.5%
Activity (MIA PaCa-2 [26]): 18.72%
Activity (MIA PaCa-2 [27]): 22.12%
Activity (MIA PaCa-2 [28]): 27.53%

inhibition [29]: 99%
IC50 [1]: 0.15 µM
IC50 (MIA PaCa-2 [2]): 8.25 µM
solubility [30]: 7.5 µg/mL (≈ 14 µM)
Papp [31]: 376 ×10⁻⁶ cm/s
Papp [32]: 443 ×10⁻⁶ cm/s
half-life [33]: > 30 min
half-life [34]: 25.1 min
SMILES: Cc1cc(C)nc(NS(=O)(=O)c2ccc(Nc3ncc4cc(C(=O)N(C)C)n(C5CCCC5)c4n3)cc2)n1
Activity (MIA PaCa-2 [20]): 35.53%
Activity (MIA PaCa-2 [21]): 43.39%
Activity (MIA PaCa-2 [22]): 44.7%
Activity (MIA PaCa-2 [23]): 27.08%
Activity (MIA PaCa-2 [24]): 17.5%
Activity (MIA PaCa-2 [25]): 18.44%
Activity (MIA PaCa-2 [26]): 37.29%
Activity (MIA PaCa-2 [27]): 39.11%
Activity (MIA PaCa-2 [28]): 36.86%

IC50 (MIA PaCa-2 [2]): 5.8 µM
SMILES: CCN1CCN(Cc2ccc(Nc3ncc(F)c(-c4cc(F)c5nc(C)n(C(C)C)c5c4)n3)nc2)CC1 [ABEMACICLIB]

inhibition [7]: Active
inhibition [9]: Active
IC50 (BXPC-3): 8.37 µM
IC50 (CDK6/cyclin D1): 0.369 µM
IC50 [1]: 0.0453 µM
IC50 (MIA PaCa-2 [2]): 3.67 µM
SMILES: O=C(Nc1ccccc1F)c1cc2cnc(Nc3ccc(N4CCNCC4)cn3)nc2n1C1CCCC1

inhibition [3]: inactive
inhibition [4]: inactive
inhibition [5]: inactive
inhibition [6]: inactive
inhibition [7]: inactive
inhibition [8]: inactive
inhibition [9]: inactive
inhibition [10]: inactive
inhibition [11]: inactive
inhibition [12]: inactive
inhibition [13]: inactive
inhibition [14]: inactive
inhibition [15]: inactive
inhibition [16]: inactive
inhibition [17]: inactive
inhibition [18]: inactive
inhibition [19]: inactive
IC50 [1]: > 100 µM
IC50 (MIA PaCa-2 [2]): 3.6 µM
SMILES: O=C(Nc1ccccc1)c1cc2cnc(Nc3ccc(N4CCNCC4)cn3)nc2n1Cc1ccccc1

IC50 (BXPC-3): 10.5 µM
IC50 (CDK6/cyclin D1): 0.169 µM
IC50 [1]: 0.0534 µM
IC50 (MIA PaCa-2 [2]): 2.65 µM
SMILES: COc1cccc(NC(=O)c2cc3cnc(Nc4ccc(N5CCNCC5)cn4)nc3n2C2CCCC2)c1

IC50 (BXPC-3): 3.65 µM
IC50 (CDK6/cyclin D1): 0.268 µM
IC50 [1]: 0.0281 µM
IC50 (MIA PaCa-2 [2]): 2.23 µM
SMILES: COc1ccc(NC(=O)c2cc3cnc(Nc4ccc(N5CCNCC5)cn4)nc3n2C2CCCC2)c(OC)c1
